Reference: PMC7419507, “In vitro Cas9-assisted editing of modular polyketide synthase genes to produce desired natural product derivatives” (Nature Communications, 2020)
Several values for one entry are separate records, joined by “and”; a condition that tells them apart may be missing. Equal values may be shown once. Entries after “also recorded” stand apart in the source; their conditions may differ. Read-outs that look alike come from different tables or passages of the source.

Target: T1, FKBP12 and mTOR (Homo sapiens, UniProt P42345+P62942)
T1 construct: host or cells: HeLa cells
T1 sequence (P42345 2025-2114 limits assumed): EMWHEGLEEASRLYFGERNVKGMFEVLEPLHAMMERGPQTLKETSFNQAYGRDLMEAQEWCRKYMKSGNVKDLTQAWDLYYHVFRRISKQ
T1 sequence (P62942 whole entry): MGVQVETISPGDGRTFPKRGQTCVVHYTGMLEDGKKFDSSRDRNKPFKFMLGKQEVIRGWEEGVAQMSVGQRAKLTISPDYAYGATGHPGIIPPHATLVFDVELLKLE
Assay: Fluoppi analysis: induction of FKBP12-mTOR complex formation in transfected HeLa cells
Assay type: cell-based
Conditions: for Foci intensity: raw data, one replicate per line
In short: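 Complex formation read as fluorescent foci: foci intensity over total per-cell intensity, imaged (×20, 9 fields/well) after fixation and Hoechst stain, giving EC50. Cells: HeLa transiently expressing hAG-mTOR and Ash-FKBP12, exposed to compound concentrations for 1 h at 37 °C.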

[1] = Fluoppi, HeLa cells, 1 h treatment, three independent biological replicates, read-out: EC50, induction of the formation of FKBP-mTOR complex

PPI-inducing (binding enhancing) activity between FKBP12 and mTOR compared with rapamycin (1), in words (Fluoppi) | Foci intensity (conc 9.53674e-5 uM) | Foci intensity (conc 0.000190735 uM) | Foci intensity (conc 0.00038147 uM) | Foci intensity (conc 0.000762939 uM) | Foci intensity (conc 0.00152588 uM) | Foci intensity (conc 0.00305176 uM) | Foci intensity (conc 0.00610352 uM) | Foci intensity (conc 0.012207 uM) | Foci intensity (conc 0.0244141 uM) | Foci intensity (conc 0.0488281 uM) | Foci intensity (conc 0.0976562 uM) | Foci intensity (conc 0.195312 uM) | Foci intensity (conc 0.390625 uM) | Foci intensity (conc 0.78125 uM) | Foci intensity (conc 1.5625 uM) | Foci intensity (conc 3.125 uM) | Foci intensity (conc 6.25 uM) | Foci intensity (conc 12.5 uM) | Foci intensity (conc 25 uM) | SMILES | other results
relatively weaker activities | 0.01796 and 0.01734 and 0.0265 | 0.007038 and 0.008763 and 0.03506 | 0.01287 and 0.02231 and 0.02044 | 0.01526 and 0.03513 and 0.01148 | 0.01977 and 0.009687 and 0.01946 | 0.01393 and 0.02436 and 0.01751 | 0.02196 and 0.02086 and 0.01607 | 0.03665 and 0.02818 and 0.0403 | 0.1568 and 0.166 and 0.1355 | 0.2266 and 0.245 and 0.2523 | 0.282 and 0.2404 and 0.219 | 0.2721 and 0.2692 and 0.2013 | 0.3169 and 0.313 and 0.309 | 0.3134 and 0.2906 and 0.2987 | 0.3134 and 0.3737 and 0.3166 | 0.3491 and 0.3731 and 0.3792 | 0.279 and 0.3226 and 0.3138 | 0.3645 and 0.3352 and 0.3161 | 0.2867 and 0.3845 and 0.2898 | CO[C@@H]1/C=C/C=C/[C@@H](C)C[C@@H](C)C(=O)C[C@H](O)/C(C)=C/[C@@H](C)C(=O)C[C@@H]([C@H](C)C[C@@H]2CC[C@@H](O)[C@H](OC)C2)OC(=O)[C@@H]2CCCCN2C(=O)C(=O)[C@]2(O)O[C@@H](CC[C@H]2C)C1 [Compound 9] | EC50 [1]: 34 nM; Foci intensity (conc 50 uM): 0.3496 and 0.3134 and 0.3176
relatively weaker activities | 0.008575 and 0.02543 and 0.01782 | 0.01164 and 0.0145 and 0.01487 | 0.01856 and 0.01046 and 0.003947 | 0.01936 and 0.005776 and 0.02867 | 0.005895 and 0.00599 and 0.02244 | 0.01605 and 0.01212 and 0.008772 | 0.0303 and 0.01224 and 0.02086 | 0.01472 and 0.01188 and 0.01532 | 0.02138 and 0.01399 and 0.02345 | 0.1099 and 0.1021 and 0.1573 | 0.2733 and 0.3147 and 0.3434 | 0.354 and 0.3591 and 0.4502 | 0.4005 and 0.429 and 0.3736 | 0.395 and 0.3804 and 0.4169 | 0.3124 and 0.2927 and 0.3257 | 0.3411 and 0.3385 and 0.2558 | 0.3119 and 0.3692 and 0.3726 | 0.3802 and 0.3948 and 0.3075 | 0.3555 and 0.3578 and 0.2982 | CO[C@@H]1C[C@H](C[C@@H](C)[C@@H]2CC(=O)[C@H](C)/C=C(\C)[C@@H](O)[C@@H](OC)C(=O)[C@H](C)C[C@H](C)/C=C/C=C/C=C(\C)[C@H](O)C[C@@H]3CC[C@@H](C)[C@@](O)(O3)C(=O)C(=O)N3CCCC[C@H]3C(=O)O2)CC[C@H]1O [Compound 17, (16R)-16-O-demethyl rapamycin] | EC50 [1]: 58 nM; Foci intensity (conc 50 uM): 0.2808 and 0.2653 and 0.2658
relatively weaker activities | 0.01132 and 0.0225 and 0.02884 | 0.02797 and 0.01973 and 0.01419 | 0.04487 and 0.01438 and 0.009614 | 0.009583 and 0.01833 and 0.008004 | 0.008334 and 0.01713 and 0.01044 | 0.03307 and 0.01421 and 0.0165 | 0.02498 and 0.01872 and 0.01859 | 0.05798 and 0.0563 and 0.05141 | 0.05792 and 0.05718 and 0.05874 | 0.2264 and 0.3107 and 0.3692 | 0.3743 and 0.3092 and 0.3931 | 0.3634 and 0.4076 and 0.3212 | 0.4389 and 0.407 and 0.4337 | 0.46 and 0.2978 and 0.3103 | 0.3578 and 0.3604 and 0.4124 | 0.4619 and 0.4071 and 0.4306 | 0.3337 and 0.3579 and 0.3756 | 0.4107 and 0.3542 and 0.4482 | 0.3853 and 0.4351 and 0.4313 | COC1CC2CCC(C)C(O)(O2)C(=O)C(=O)N2CCCCC2C(=O)OC(C(C)CC2CCC(O)C(OC)C2)CCC(C)C=C(C)C(O)C(OC)C(=O)C(C)CC(C)C=CC=CC=C1C (stereo not shown) [Compound 16, 32-desketorapamycin] | EC50 [1]: 38 nM; Foci intensity (conc 50 uM): 0.3983 and 0.3475 and 0.366

SMILES | PPI-inducing (binding enhancing) activity between FKBP12 and mTOR compared with rapamycin (1), in words (Fluoppi) | Foci intensity (conc 9.53674e-5 uM) | Foci intensity (conc 0.000190735 uM) | Foci intensity (conc 0.00038147 uM) | Foci intensity (conc 0.000762939 uM) | Foci intensity (conc 0.00152588 uM) | Foci intensity (conc 0.00305176 uM) | Foci intensity (conc 0.00610352 uM) | Foci intensity (conc 0.012207 uM) | Foci intensity (conc 0.0244141 uM) | Foci intensity (conc 0.0488281 uM) | Foci intensity (conc 0.0976562 uM) | Foci intensity (conc 0.195312 uM) | Foci intensity (conc 0.390625 uM) | Foci intensity (conc 0.78125 uM) | Foci intensity (conc 1.5625 uM) | Foci intensity (conc 3.125 uM) | Foci intensity (conc 6.25 uM) | Foci intensity (conc 12.5 uM) | Foci intensity (conc 25 uM) | other results
COC1CC2CCC(C)C(O)(O2)C(=O)C(=O)N2CCCCC2C(=O)OC(C(C)CC2CCC(O)C(OC)C2)CC(=O)C(C)C=C(C)C(O)C(OC)C(=O)C(C)CC(C)C=CCCC=C1C (stereo not shown) [Compound 15, 19,20-dihidro-rapamycin] | as potent as rapamycin; also recorded: comparable level to that of rapamycin | 0.01733 and 0.01067 and 0.005693 | 0.01213 and 0.0332 and 0.01291 | 0.02253 and 0.02952 and 0.01485 | 0.009661 and 0.01831 and 0.03236 | 0.02962 and 0.01659 and 0.0505 | 0.04113 and 0.07899 and 0.06427 | 0.1575 and 0.2102 and 0.171 | 0.3436 and 0.3356 and 0.3668 | 0.3409 and 0.4046 and 0.3885 | 0.3546 and 0.3355 and 0.3935 | 0.3693 and 0.3135 and 0.3917 | 0.3656 and 0.4341 and 0.3989 | 0.405 and 0.3385 and 0.3714 | 0.3465 and 0.4349 and 0.4007 | 0.3165 and 0.3834 and 0.336 | 0.3857 and 0.3532 and 0.3973 | 0.3637 and 0.3694 and 0.3083 | 0.3396 and 0.3224 and 0.3917 | 0.3402 and 0.3226 and 0.4132 | EC50: 6.3 nM; Foci intensity (conc 50 uM): 0.4382 and 0.3564 and 0.4638
